Converted amounts (≈) assume the structure as drawn. Counter-ions that a name gives are not always drawn.
How the values were obtained:
Trichophyton rubrum = assay: Liquid broth assay (MIC); format: cell-based; details: for MIC: Trichophyton rubrum, 672 h, liquid (broth) culture, incubated up to 4 weeks, one value without distinguishing the two dermatophytes, read-out: minimal inhibitory concentration (MIC); for antifungal activity ranking: liquid broth assay, rank 1 = most active, same ranking for both dermatophytes
Method: (§1) The minimum inhibitory concentration (MIC) of various test agents were tested in a standard protocol against two dermatophytes: Trichophyton rubrum and Trichophyton mentagrophyles:
(§2) Trichophyton rubrum and Trichophyton mentagrophytes were grown on potato dextrose agar (PDA) at 30° C. for 1-5 weeks. One clone was picked randomly and grown in sabouraud dextrose broth (SDB) to a density of 1×10^6 colony forming units (cfu) per ml. Various concentrations of test agents were added to the dermatophyte cultures and incubated for up to 4 weeks. Each week, an aliquot of the liquid culture was taken and placed on a PDA plate, and incubated for up to 3 weeks to assess growth. The plates were examined and photographed each week. Cultures were considered positive when more than 2 colonies were found per plate.

[1] = system: Trichophyton mentagrophytes; assay: Liquid broth assay (MIC); format: cell-based; details: for MIC: Trichophyton mentagrophytes, 672 h, liquid (broth) culture, incubated up to 4 weeks, one value without distinguishing the two dermatophytes, read-out: minimal inhibitory concentration (MIC); for antifungal activity ranking: liquid broth assay, rank 1 = most active, same ranking for both dermatophytes
Method: as §1, §2

MIC (Trichophyton rubrum) [µg/mL]	MIC [1] [µg/mL]	Structure (SMILES)	antifungal activity ranking (Trichophyton rubrum)	antifungal activity ranking [1]
250 (≈ 1010 µM)	250 (≈ 1010 µM)	CCCCCCCCCC(=O)OCC(O)CO (racemic) [1-monocaprin, 1-decanoyl-rac-glycerol]	5	5
< 3.9	< 3.9	CN(C/C=C/C#CC(C)(C)C)Cc1cccc2ccccc12 [Terbinafine, terbinafine HCl]	1	1
31.3 (≈ 151 µM)	31.3 (≈ 151 µM)	Cc1cc(C2CCCCC2)n(O)c(=O)c1 [ciclopirox]	4	4
< 3.9	< 3.9	Clc1ccc(COC(Cn2ccnc2)c2ccc(Cl)cc2Cl)cc1 (stereo not drawn) [econazole, econazole Nitrate]	1	1
–	–	CC(=O)N1CCN(c2ccc(OCC3COC(Cn4ccnc4)(c4ccc(Cl)cc4Cl)O3)cc2)CC1 (stereo not drawn) [ketoconazole]	3	3
–	–	Clc1ccc(C(Cn2ccnc2)OCc2ccsc2Cl)c(Cl)c1 (stereo not drawn) [tioconazole]	2	2

Structure (SMILES)	MIC (Trichophyton rubrum) [µg/mL]	MIC [1] [µg/mL]	antifungal activity ranking (Trichophyton rubrum)	antifungal activity ranking [1]
CCCCc1ccc(C(=O)O)nc1 [Fusaric acid, fusaric Acid]	500 (≈ 2790 µM)	500 (≈ 2790 µM)	6	6
